Patent US8791102B2, “Acetanilide sphingosine-1-phosphate receptor antagonists” (Exelixis, Inc., priority 2008, dated 2014)

Target: T1, human S1P1 receptors (Homo sapiens, UniProt P21453)
T1 construct: host or cells: HEK293
Assay: S1P1R antagonist assay (fluorescent membrane potential dye, cAMP readout)
Type: cell-based
Conditions: HEK293 cells expressing human S1P1 receptors and CNG channel; 500 nM NECA; S1P1R agonist 10 nM; 90 minutes; read-out: EC50 or IC50 value

T1 sequence (P21453 whole entry): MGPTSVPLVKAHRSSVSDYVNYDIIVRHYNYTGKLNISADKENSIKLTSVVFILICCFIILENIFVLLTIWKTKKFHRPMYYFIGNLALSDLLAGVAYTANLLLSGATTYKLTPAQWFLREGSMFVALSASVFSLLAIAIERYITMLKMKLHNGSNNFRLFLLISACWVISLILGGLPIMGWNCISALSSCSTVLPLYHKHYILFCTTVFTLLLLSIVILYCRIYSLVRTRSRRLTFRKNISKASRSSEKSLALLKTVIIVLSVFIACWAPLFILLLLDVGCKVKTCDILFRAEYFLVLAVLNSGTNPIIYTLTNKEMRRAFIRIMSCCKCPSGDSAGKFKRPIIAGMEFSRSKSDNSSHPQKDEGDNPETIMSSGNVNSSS

| SMILES | IC50 [nM] |
| --- | --- |
| O=C(Nc1ccc(Oc2ccc(F)cc2)cc1)[C@@H]1CN(Cc2ccccc2)CCN1C(=O)Cc1cnc[nH]1 [Compound 175, (S)-1-(2-(1H-imidazol-4-yl)acetyl)-4-benzyl-N-(4-(4-fluorophenoxy)phenyl)piperazine-2-carboxamide] | ≤ 300 |
| O=C(Cn1cncn1)N[C@@H](COCc1ccccc1Cl)C(=O)Nc1ccc(Oc2ccc(F)cc2)cc1 [Compound 181, (S)-2-(2-(1H-1,2,4-triazol-1-yl)acetamido)-3-(2-chlorobenzyloxy)-N-(4-(4-fluorophenoxy)phenyl)propanamide] | ≤ 300 |
| O=C(Nc1ccc(Oc2ccc(F)cc2)cc1)[C@@H]1C[C@@H](NCc2ccsc2)CN1C(=O)Cn1cncn1 [Compound 182, (2S,4R)-1-(2-(1H-1,2,4-triazol-1-yl)acetyl)-N-(4-(4-fluorophenoxy)phenyl)-4-(thien-3-ylmethylamino)pyrrolidine-2-carboxamide] | ≤ 300 |
| O=C(Cc1ccccc1F)NC(COCc1ccccc1)C(=O)Nc1ccc(Oc2ccccc2)cc1 (stereo not shown) [Compound 183, 3-(benzyloxy)-2-(2-(2-fluorophenyl)acetamido)-N-(4-phenoxyphenyl)propanamide] | 300 to 1000 |
| O=C(NC(COCc1ccccc1)C(=O)Nc1ccc(Oc2ccccc2)cc1)c1cccc2[nH]ccc12 (stereo not shown) [Compound 184, N-(3-(benzyloxy)-1-oxo-1-(4-phenoxyphenylamino)propan-2-yl)-1H-indole-4-carboxamide] | 300 to 1000 |
| Cc1cc(CC(=O)NC(COCc2ccccc2)C(=O)Nc2ccc(Oc3ccccc3)cc2)on1 (stereo not shown) [Compound 185, 2-(2-(3-methylisoxazol-5-yl)acetamido)-3-benzyloxy-N-(4-phenoxyphenyl)propanamide] | ≤ 300 |
| O=C(CCC(=O)C1CC1)NC(COCc1ccccc1)C(=O)Nc1ccc(Oc2ccccc2)cc1 (stereo not shown) [Compound 186, N-(3-(benzyloxy)-1-oxo-1-(4-phenoxyphenylamino)propan-2-yl)-4-cyclopropyl-4-oxobutanamide] | 300 to 1000 |
| O=C(NC(COCc1ccccc1)C(=O)Nc1ccc(Oc2ccccc2)cc1)c1ccc2cc[nH]c2c1 (stereo not shown) [Compound 187, N-(3-(benzyloxy)-1-oxo-1-(4-phenoxyphenylamino)propan-2-yl)-1H-indole-6-carboxamide] | 300 to 1000 |
| O=C(NC(COCc1ccccc1)C(=O)Nc1ccc(Oc2ccccc2)cc1)C1Cc2ccccc2C1 (stereo not shown) [Compound 188, N-(3-(benzyloxy)-1-oxo-1-(4-phenoxyphenylamino)propan-2-yl)-2,3-dihydro-1H-indene-2-carboxamide] | 300 to 1000 |
| Cc1cccc(C(=O)NC(COCc2ccccc2)C(=O)Nc2ccc(Oc3ccccc3)cc2)c1[N+](=O)[O-] (stereo not shown) [Compound 189, N-(3-(benzyloxy)-1-oxo-1-(4-phenoxyphenylamino)propan-2-yl)-3-methyl-2-nitrobenzamide] | 300 to 1000 |
| O=C(Cc1cc(Cl)ccc1Cl)NC(COCc1ccccc1)C(=O)Nc1ccc(Oc2ccccc2)cc1 (stereo not shown) [Compound 190, 3-(benzyloxy)-2-(2-(2,5-dichlorophenyl)acetamido)-N-(4-phenoxyphenyl)propanamide] | 300 to 1000 |
| O=C(Cc1cccc(Cl)c1F)NC(COCc1ccccc1)C(=O)Nc1ccc(Oc2ccccc2)cc1 (stereo not shown) [Compound 191, 3-(benzyloxy)-2-(2-(3-chloro-2-fluorophenyl)acetamido)-N-(4-phenoxyphenyl)propanamide] | 300 to 1000 |
| O=C(Cc1cc(Cl)ccc1F)NC(COCc1ccccc1)C(=O)Nc1ccc(Oc2ccccc2)cc1 (stereo not shown) [Compound 192, 3-(benzyloxy)-2-(2-(5-chloro-2-fluorophenyl)acetamido)-N-(4-phenoxyphenyl)propanamide] | 300 to 1000 |
| CN(CC(=O)N[C@@H](COCc1ccccc1)C(=O)Nc1ccc(Oc2ccccc2)cc1)C(=O)c1ccccc1 [Compound 194, (S)-2-{2-((benzoyl)(methyl)amino)acetamido}-3-benzyloxy-N-(4-phenoxyphenyl)propanamide] | 300 to 1000 |
| Cn1cnc(CC(=O)N[C@@H](COCc2ccccc2)C(=O)Nc2ccc(Oc3ccccc3)cc2)c1 [Compound 195, (S)-2-(2-(1-methyl-1H-imidazol-4-yl)acetamido)-3-benzyloxy-N-(4-phenoxyphenyl)propanamide] | ≤ 300 |
| O=C(Cc1ccccc1F)N[C@@H](COCc1ccccc1)C(=O)Nc1ccc(Oc2ccccc2)cc1 [Compound 196, (S)-2-(2-(2-fluorophenyl)acetamido)-3-benzyloxy-N-(4-phenoxyphenyl)propanamide] | 300 to 1000 |
| O=C(Cc1cccs1)N[C@@H](COCc1ccccc1)C(=O)Nc1ccc(Oc2ccccc2)cc1 [Compound 198, (S)-2-(2-(thien-2-yl)acetamido)-3-benzyloxy-N-(4-phenoxyphenyl)propanamide] | 300 to 1000 |
| O=C(Cc1cc(Cl)ccc1Cl)N[C@@H](COCc1ccccc1)C(=O)Nc1ccc(Oc2ccccc2)cc1 [Compound 199, (S)-2-(2-(2,5-dichlorophenyl)acetamido)-3-benzyloxy-N-(4-phenoxyphenyl)propanamide] | 300 to 1000 |
| O=C(Cc1cnc[nH]1)N[C@@H](COCc1ccccc1)C(=O)Nc1ccc(Cc2ccccc2)cc1 [Compound 200, (S)-2-(2-(1H-imidazol-4-yl)acetamido)-3-(benzyloxy)-N-(4-benzylphenyl)propanamide] | ≤ 300 |
| COc1ccc(Oc2ccc(NC(=O)[C@H](COCc3ccccc3)NC(=O)Cc3c[nH]cn3)cc2)cc1 [Compound 202, (S)-2-(2-(1H-imidazol-4-yl)acetamido)-3-(benzyloxy)-N-(4-(4-methoxyphenoxy)phenyl)propanamide] | ≤ 300 |
| CN(C(=O)Cc1c[nH]cn1)[C@@H](COCc1ccccc1)C(=O)Nc1ccc(Oc2ccccc2)cc1 [Compound 203, (S)-2-(2-(1H-imidazol-4-yl)-N-methylacetamido)-3-(benzyloxy)-N-(4-phenoxyphenyl)propanamide] | ≤ 300 |

The remaining lines, values ahead:

| IC50 [nM] | SMILES |
| --- | --- |
| ≤ 300 | CC(C(=O)N[C@@H](COCc1ccccc1)C(=O)Nc1ccc(Oc2ccc(F)cc2)cc1)c1c[nH]cn1 (stereo partly drawn) [Compound 167, (2S)-2-(2-(1H-imidazol-4-yl)propanamido)-3-(benzyloxy)-N-(4-(4-fluorophenoxy)phenyl)propanamide] |
| ≤ 300 | O=C(Cc1c[nH]cn1)N[C@@H](COCc1ccc(F)cc1)C(=O)Nc1ccc(Oc2ccc(Br)cc2)cc1 [Compound 168, (S)-2-(2-(1H-imidazol-5-yl)acetamido)-N-(4-(4-bromophenoxy)phenyl)-3-(4-fluorobenzyloxy)propanamide] |
| ≤ 300 | O=C(Nc1ccc(Oc2ccc(F)cc2)cc1)[C@@H]1C[C@@H](Cc2c(F)cc(F)cc2F)CN1C(=O)Cn1nccn1 [Compound 169, (2S,4R)-1-(2-(2H-1,2,3-triazol-2-yl)acetyl)-N-(4-(4-fluorophenoxy)phenyl)-4-(2,4,6-trifluorobenzyl)pyrrolidine-2-carboxamide] |
| ≤ 300 | O=C(Nc1ccc(Oc2ccc(F)cc2)cc1)[C@@H]1C[C@@H](Cc2c(F)cc(F)cc2F)CN1C(=O)Cn1ccnn1 [Compound 170, (2S,4R)-1-(2-(1H-1,2,3-triazol-1-yl)acetyl)-N-(4-(4-fluorophenoxy)phenyl)-4-(2,4,6-trifluorobenzyl)pyrrolidine-2-carboxamide] |
| ≤ 300 | Cc1cccc(C[C@@H]2C[C@@H](C(=O)Nc3ccc(Oc4ccc(F)cc4)cc3)N(C(=O)Cn3cncn3)C2)c1 [Compound 171, (2S,4R)-1-(2-(1H-1,2,4-triazol-1-yl)acetyl)-N-(4-(4-fluorophenoxy)phenyl)-4-(3-methylbenzyl)pyrrolidine-2-carboxamide] |
| ≤ 300 | Cc1noc(C)c1NC(=O)N[C@@H](COCc1ccccc1)C(=O)Nc1ccc(Oc2ccc(F)cc2)cc1 [Compound 172, (S)-2-(3-(3,5-dimethylisoxazol-4-yl)ureido)-3-benzyloxy-N-(4-(4-fluorophenoxy)phenyl)propanamide] |
| ≤ 300 | O=C(Nc1ccc(Oc2ccc(F)cc2)cc1)[C@@H]1C[C@@H](NCc2ccccc2)CN1C(=O)Cc1cnc[nH]1 [Compound 173, (2S,4R)-1-(2-(1H-imidazol-5-yl)acetyl)-4-(benzylamino)-N-(4-(4-fluorophenoxy)phenyl)pyrrolidine-2-carboxamide] |
| ≤ 300 | O=C(Cn1ccnn1)N[C@@H](COCc1ccccc1)C(=O)Nc1ccc(Oc2ccc(F)cc2)cc1 [Compound 174, (S)-2-(2-(1H-1,2,3-triazol-1-yl)acetamido)-3-(benzyloxy)-N-(4-(4-fluorophenoxy)phenyl)propanamide] |
| ≤ 300 | O=C(Nc1ccc(Oc2ccc(F)cc2)cc1)[C@@H]1C[C@@H](Cc2ccccc2)CN1C(=O)Cn1nnc2ccccc21 [Compound 176, (2S,4R)-1-(2-(1H-benzo[d][1,2,3]triazol-1-yl)acetyl)-4-benzyl-N-(4-(4-fluorophenoxy)phenyl)pyrrolidine-2-carboxamide] |
| ≤ 300 | Cc1cc(CC(=O)N2C[C@H](Cc3ccccc3)C[C@H]2C(=O)Nc2ccc(Oc3ccc(F)cc3)cc2)n[nH]1 [Compound 177, (2S,4R)-4-benzyl-N-(4-(4-fluorophenoxy)phenyl)-1-(2-(5-methyl-1H-pyrazol-3-yl)acetyl)pyrrolidine-2-carboxamide] |
| ≤ 300 | O=C(Cn1cncn1)N[C@@H](COCc1ccccc1)C(=O)Nc1ccc(Sc2ccc(F)cc2)cc1 [Compound 178, (S)-2-(2-(1H-1,2,4-triazol-1-yl)acetamido)-3-(benzyloxy)-N-(4-(4-fluorophenylthio)phenyl)propanamide] |
| ≤ 300 | O=C(Nc1ccc(Oc2ccc(F)cc2)cc1)[C@@H]1C[C@@H](NCc2ccccc2)CN1C(=O)Cn1cncn1 [Compound 179, (2S,4R)-1-(2-(1H-1,2,4-triazol-1-yl)acetyl)-4-(benzylamino)-N-(4-(4-fluorophenoxy)phenyl)pyrrolidine-2-carboxamide] |
| ≤ 300 | O=C(Nc1ccc(Oc2ccc(F)cc2)cc1)[C@@H]1C[C@@H](Cc2ccc(Cl)cc2Cl)CN1C(=O)Cn1cncn1 [Compound 180, (2S,4R)-1-(2-(1H-1,2,4-triazol-1-yl)acetyl)-4-(2,4-dichlorobenzyl)-N-(4-(4-fluorophenoxy)phenyl)pyrrolidine-2-carboxamide] |
